Values quoted from earlier work, collected in patent US20020044913A1, “Cosmetics to support skin metabolism” (priority 2000, published 2002).
Like-named read-outs stand apart in the source and are kept apart here.

Tests used:
[1] = system: carnitine-acetyl-carnitine exchange across the inner mitochondrial membrane
[2] = daily supplements of up to 200 mg for 6-12 months and 100 mg daily for up to 6 y
apoptosis = conditions: through its action in the mitochondria
[3] = system: senescent myocardium (human atrial tissue and rats)
aged rats = conditions: supplementation
oxidant production = conditions: carnitine supplementation
[4] = not given; remark: listed apart in the source
skeletal muscle = conditions: older individuals (40-73), 20 g/day, one week

In the case of `C[N+](C)(C)C[C@H](O)CC(=O)[O-]` [L-carnitine], the “age-associated decrease in mtDNA transcription” value [1] is listed as “reverse”, the “age-related decrease in cardiolipin” value [1] is listed as “reverse the age-related decrease in cardiolipin” and the “age-related decrease of carnitine-acetyl-carnitine exchange activity” value [1] is listed as “slow or reverse this age-related dysfunction”. For the same molecule, the decreased membrane potential [1] was “reverse”.

In the case of `COC1=C(OC)C(=O)C(C/C=C(\C)CC/C=C(\C)CC/C=C(\C)CC/C=C(\C)CC/C=C(\C)CC/C=C(\C)CC/C=C(\C)CC/C=C(\C)CC/C=C(\C)CCC=C(C)C)=C(C)C1=O` [Q10, Coenzyme Q10], the adverse effects [2] is listed as “No important adverse effects”, the “programmed cell death (apoptosis)” value (apoptosis) is listed as “appears to block programmed cell death” and the “tolerance of senescent myocardium to aerobic and ischemic stress” value ([3]; human atrial tissue and rats) is listed as “improves the tolerance”. For the same molecule, the “recovery of function in older hearts” value ([3]; older vs younger hearts) was “corrected the age-specific diminished recovery of function in older hearts”, the benefit of supplementation (older Finnish men, 100 mg/day) was “obtained benefit” and the clinical improvement (woman deficient in Q10, 150 mg/kg) was “rapidly improved”.

In the case of `O=C(O)CCCC[C@@H]1CCSS1` [R-α-lipoic acid], the “age-related decline in mitochondrial membrane potential” value (aged rats) is listed as “restore the age-related decline in mitochondrial membrane potential”, the “age-related decrease in oxygen consumption” value (aged rats) is listed as “reverse the age-related decrease in oxygen consumption” and the “age-related increase in oxidants” value (aged rats) is listed as “significantly lower”. The “glutathione and ascorbic acid levels” value (aged rats) was “restore glutathione and ascorbic acid levels to youthful levels” and the “ambulatory activity of aged rats” value (aged rats; aged rats) was “triple”.

In the case of `CC(=O)O[C@H](CC(=O)[O-])C[N+](C)(C)C` [acetyl-L-carnitine], the “age-associated decrease in mtDNA transcription” value [1] is given as “reverse”, the “age-related decrease in cardiolipin” value [1] is given as “reverse the age-related decrease in cardiolipin” and the “age-related decrease of carnitine-acetyl-carnitine exchange activity” value [1] is given as “slow or reverse this age-related dysfunction”. For the same molecule, the decreased membrane potential [1] was “reverse”.

For `C[N+](C)(C)CC(O)CC(=O)[O-]` (stereo not shown) [carnitine], the cell antioxidants (oxidant production) is listed as “decreased cell antioxidants markedly” and the “increase in oxidant production” value (oxidant production) is listed as 30%.

For `CN(CC(=O)O)C(=N)N` [creatine], the safety ([4]; 1.5 g-25 g/day for period of at least a year) is given as “safe”, the adverse effects ([4]; athletes, doses up to 75 grams a day for years) is given as “without known adverse effects, aside from weight gain” and the “skeletal muscle strength and endurance” value (skeletal muscle) is given as “Increased skeletal muscle strength and endurance”.

For `COc1c(O)c(C)c(C/C=C(\C)CC/C=C(\C)CC/C=C(\C)CC/C=C(\C)CC/C=C(\C)CC/C=C(\C)CC/C=C(\C)CC/C=C(\C)CC/C=C(\C)CCC=C(C)C)c(O)c1OC` [ubiquinol-10], the “oxidative damage to DNA” value (human lymphocytes) is listed as “appears to protect human lymphocytes from oxidative damage to DNA”.
